Paper PMC6522912, “Evaluation of the published kinase inhibitor set to identify multiple inhibitors of bacterial ATP-dependent mur ligases” (Journal of Enzyme Inhibition and Medicinal Chemistry, 2019)

Legend:
E. coli MurC = E. coli MurC (Escherichia coli, UniProt P17952); assay: Malachite green inhibition assay, MurC; assay type: biochemical; settings: Table S1, PKIS screening; for remaining activity at 100 µM: 0.25 h, read-out: RA [%] at 100 µM MurC
Description: (§1) Inhibition of the Mur ligases was determined using the malachite green assay, with slight modifications.
(§2) In all cases, the final concentration of DMSO was 5% (v/v). After incubation for 15 min at 37 °C, the enzyme reaction was terminated by addition of 100 µM Biomol green reagent, and the absorbance was measured at 650 nm after 5 min. All of the experiments were run in duplicate. Residual activities were calculated with respect to control assays without the tested compounds, but with the 5% DMSO carrier.
(§3) The published kinase inhibitor set compounds were evaluated for inhibition of MurC, D and F ligases from E. coli using the Malachite green assay, which detects orthophosphate generated during enzymatic reactions. To avoid non-specific inhibition due to aggregate formation, all of the compounds were tested in the presence of detergent (0.005% Triton-X114). The data are presented as the residual activities of these Mur ligases in the presence of 100 µM of each test compound (Supporting Information Table S1). […] Additionally, regarding the data of profiled compounds in large panels of human kinase assays[41]

E. coli MurD = E. coli MurD (Escherichia coli, UniProt P14900); assay: biochemical; settings: 0.25 h, Table S1, PKIS screening; read-out: RA [%] at 100 µM MurD
Chain of E. coli MurD (P14900 whole entry): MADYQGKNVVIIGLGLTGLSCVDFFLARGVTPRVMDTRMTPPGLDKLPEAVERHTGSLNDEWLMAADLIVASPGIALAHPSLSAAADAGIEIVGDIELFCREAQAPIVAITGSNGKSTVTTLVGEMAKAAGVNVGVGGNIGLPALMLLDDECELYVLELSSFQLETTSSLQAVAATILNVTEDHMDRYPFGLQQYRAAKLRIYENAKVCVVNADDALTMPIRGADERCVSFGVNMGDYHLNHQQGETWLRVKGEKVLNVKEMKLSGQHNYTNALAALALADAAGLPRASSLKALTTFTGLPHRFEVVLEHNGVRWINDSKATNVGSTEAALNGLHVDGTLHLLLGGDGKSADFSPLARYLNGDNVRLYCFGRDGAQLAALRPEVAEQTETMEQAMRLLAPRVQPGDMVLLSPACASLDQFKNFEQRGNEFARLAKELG
Description: as §1, §2
The published kinase inhibitor set compounds were evaluated for inhibition of MurC, D and F ligases from E. coli using the Malachite green assay, which detects orthophosphate generated during enzymatic reactions. To avoid non-specific inhibition due to aggregate formation, all of the compounds were tested in the presence of detergent (0.005% Triton-X114). The data are presented as the residual activities of these Mur ligases in the presence of 100 µM of each test compound (Supporting Information Table S1).

E. coli MurF = E. coli MurF (Escherichia coli, UniProt P11880); assay: biochemical; settings: Table S1, PKIS screening; for remaining activity at 100 µM: 0.25 h, read-out: RA [%] at 100 µM MurF
Chain of E. coli MurF (P11880 whole entry): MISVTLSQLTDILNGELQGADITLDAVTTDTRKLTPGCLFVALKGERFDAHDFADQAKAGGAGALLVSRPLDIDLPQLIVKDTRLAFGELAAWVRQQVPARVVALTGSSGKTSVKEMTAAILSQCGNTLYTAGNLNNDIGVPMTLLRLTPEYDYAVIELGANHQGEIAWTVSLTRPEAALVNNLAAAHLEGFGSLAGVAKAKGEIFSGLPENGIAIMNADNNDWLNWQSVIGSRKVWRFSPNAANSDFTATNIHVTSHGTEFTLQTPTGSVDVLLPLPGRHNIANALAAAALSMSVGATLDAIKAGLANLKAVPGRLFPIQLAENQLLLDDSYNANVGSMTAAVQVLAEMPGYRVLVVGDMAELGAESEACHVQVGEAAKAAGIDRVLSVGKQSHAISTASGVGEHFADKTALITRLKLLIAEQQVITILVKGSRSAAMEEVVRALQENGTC
Description: as §1, §2, §3

Chain of E. coli MurC (P17952 whole entry): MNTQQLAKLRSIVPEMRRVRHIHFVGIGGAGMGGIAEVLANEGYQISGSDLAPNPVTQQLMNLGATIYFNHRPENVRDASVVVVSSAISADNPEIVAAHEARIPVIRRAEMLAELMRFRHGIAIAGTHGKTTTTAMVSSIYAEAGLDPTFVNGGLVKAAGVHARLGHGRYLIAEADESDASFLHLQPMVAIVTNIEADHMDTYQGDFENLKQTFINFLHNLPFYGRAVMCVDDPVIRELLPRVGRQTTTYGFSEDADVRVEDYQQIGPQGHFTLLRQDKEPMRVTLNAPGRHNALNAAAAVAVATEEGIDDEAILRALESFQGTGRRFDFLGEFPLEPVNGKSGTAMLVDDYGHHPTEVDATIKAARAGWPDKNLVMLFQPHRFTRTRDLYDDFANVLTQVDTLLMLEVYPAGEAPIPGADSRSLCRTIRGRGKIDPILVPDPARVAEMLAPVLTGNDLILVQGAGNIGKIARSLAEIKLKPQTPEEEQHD

SMILES: CS(=O)(=O)CCNCc1nc(-c2ccc3ncnc(Nc4ccc(F)c(Cl)c4)c3c2)cs1 [GW461104A]
- remaining activity at 100 µM (E. coli MurC): 88%
- remaining activity at 100 µM (E. coli MurD): 73%
- remaining activity at 100 µM (E. coli MurF): 84%

SMILES: COc1cc(C=NNc2ncnc3c2cnn3-c2ccccc2)ccc1O [GW513184X]
- remaining activity at 100 µM (E. coli MurC): 89%
- remaining activity at 100 µM (E. coli MurD): 86%
- remaining activity at 100 µM (E. coli MurF): 78%

SMILES: CCn1c(-c2nonc2N)nc2ccccc21 [GW549034X]
- RA [%] at 100 µM MurC (E. coli MurC): 70%
- remaining activity at 100 µM (E. coli MurD): 100%
- RA [%] at 100 µM MurF (E. coli MurF): 93%

SMILES: c1ccc(Nc2ncc(-c3ccccc3)o2)cc1 [GW549390X]
- remaining activity at 100 µM (E. coli MurC): 85%
- remaining activity at 100 µM (E. coli MurD): 92%
- remaining activity at 100 µM (E. coli MurF): 93%

SMILES: N#Cc1ccc2c(-c3ccnc(NC4CC4)n3)c(-c3ccc(F)cc3)nn2c1 [GW561436X]
- remaining activity at 100 µM (E. coli MurC): 87%
- remaining activity at 100 µM (E. coli MurD): 76%
- remaining activity at 100 µM (E. coli MurF): 77%

SMILES: CS(=O)(=O)CCNCc1coc(-c2ccc3ncnc(Nc4ccc(OCc5ccccc5)cc4)c3c2)c1 [GW566221B]
- remaining activity at 100 µM (E. coli MurC): 69%
- remaining activity at 100 µM (E. coli MurD): 69%
- remaining activity at 100 µM (E. coli MurF): 82%

SMILES: CS(=O)(=O)CCNCc1ccc(-c2ccc3ncnc(Nc4ccc(OCc5cccc(C(F)(F)F)c5)cc4)c3c2)o1 [GW567808A]
- remaining activity at 100 µM (E. coli MurC): 56%
- remaining activity at 100 µM (E. coli MurD): 34%
- remaining activity at 100 µM (E. coli MurF): 100%

SMILES: Nc1nccc(-c2c(-c3ccc(F)cc3)nn3cc(C(F)(F)F)ccc23)n1 [GW568326X]
- remaining activity at 100 µM (E. coli MurC): 68%
- remaining activity at 100 µM (E. coli MurD): 90%
- remaining activity at 100 µM (E. coli MurF): 78%

SMILES: OCCCNc1nccc(-c2c(-c3ccc(F)cc3)nn3cc(C(F)(F)F)ccc23)n1 [GW569293E]
- remaining activity at 100 µM (E. coli MurC): 54%
- remaining activity at 100 µM (E. coli MurD): 89%
- remaining activity at 100 µM (E. coli MurF): 72%

SMILES: NS(=O)(=O)c1ccc(Nc2ncc(-c3ccccc3)o2)cc1 [GW572399X]
- remaining activity at 100 µM (E. coli MurC): 80%
- remaining activity at 100 µM (E. coli MurD): 100%
- remaining activity at 100 µM (E. coli MurF): 74%

SMILES: CCN(CC)S(=O)(=O)c1ccc(OC)c(Nc2ncc(-c3ccccc3)o2)c1 [GW572401X]
- remaining activity at 100 µM (E. coli MurC): 63%
- remaining activity at 100 µM (E. coli MurD): 60%
- remaining activity at 100 µM (E. coli MurF): 82%

SMILES: N#Cc1c(NC(=O)c2ccccc2F)sc2c1CCCC2 [GW572738X]
- remaining activity at 100 µM (E. coli MurC): 88%
- remaining activity at 100 µM (E. coli MurD): 91%
- remaining activity at 100 µM (E. coli MurF): 100%

SMILES: CS(=O)(=O)CCNCc1ccc(-c2ccc3ncnc(Nc4ccc(OCc5ccccc5)c(C(F)(F)F)c4)c3c2)o1 [GW574782A]
- remaining activity at 100 µM (E. coli MurC): 83%
- remaining activity at 100 µM (E. coli MurD): 60%
- remaining activity at 100 µM (E. coli MurF): 100%

SMILES: CS(=O)(=O)CCNCc1ccc(-c2ccc3ncnc(Nc4ccc(OCc5ccccc5)c(Cl)c4)c3c2)o1 [GW574783B]
- remaining activity at 100 µM (E. coli MurC): 58%
- remaining activity at 100 µM (E. coli MurD): 37%
- remaining activity at 100 µM (E. coli MurF): 79%

SMILES: COc1ccc(Nc2ncc(-c3ccccc3)o2)cc1OC [GW575533A]
- remaining activity at 100 µM (E. coli MurC): 79%
- remaining activity at 100 µM (E. coli MurD): 93%
- remaining activity at 100 µM (E. coli MurF): 71%

SMILES: Cc1ccc(Nc2ccnc(Nc3cccc(C(N)=O)c3)n2)cc1O [GW575808A]
- remaining activity at 100 µM (E. coli MurC): 100%
- remaining activity at 100 µM (E. coli MurD): 89%
- remaining activity at 100 µM (E. coli MurF): 100%

SMILES: CS(=O)(=O)CCNCc1ccc(-c2ccc3ncnc(Nc4ccc(OCc5cccc(F)c5)c(C(F)(F)F)c4)c3c2)o1 [GW576484X]
- remaining activity at 100 µM (E. coli MurC): 100%
- remaining activity at 100 µM (E. coli MurD): 55%
- remaining activity at 100 µM (E. coli MurF): 100%

SMILES: [O-][S+]1CCN(Cc2ccc(-c3ccc4ncnc(Nc5ccc(OCc6cccc(F)c6)c(Cl)c5)c4c3)o2)CC1 [GW576609A]
- remaining activity at 100 µM (E. coli MurC): 71%
- remaining activity at 100 µM (E. coli MurD): 54%
- remaining activity at 100 µM (E. coli MurF): 78%

SMILES: [O-][S+]1CCN(Cc2ccc(-c3ccc4ncnc(Nc5ccc(OCc6ccccc6)c(F)c5)c4c3)o2)CC1 [GW576924A]
- remaining activity at 100 µM (E. coli MurC): 39%
- remaining activity at 100 µM (E. coli MurD): 85%
- remaining activity at 100 µM (E. coli MurF): 58%

SMILES: COc1ccccc1Nc1ncc(-c2ccccc2)o1 [GW577921A]
- remaining activity at 100 µM (E. coli MurC): 71%
- remaining activity at 100 µM (E. coli MurD): 84%
- remaining activity at 100 µM (E. coli MurF): 76%

SMILES: CS(=O)(=O)CCNCc1ccc(-c2ccc3ncnc(Nc4ccc(OCc5ccccc5)c(Br)c4)c3c2)o1 [GW580496A]
- remaining activity at 100 µM (E. coli MurC): 95%
- remaining activity at 100 µM (E. coli MurD): 48%
- remaining activity at 100 µM (E. coli MurF): 90%

SMILES: CCS(=O)(=O)c1ccc(OC)c(Nc2ncc(-c3cccc(OC)c3)o2)c1 [GW580509X]
- remaining activity at 100 µM (E. coli MurC): 100%
- remaining activity at 100 µM (E. coli MurD): 82%
- remaining activity at 100 µM (E. coli MurF): 93%

SMILES: NC(=O)c1ccc2c(-c3ccnc(NCCCO)n3)c(-c3ccc(F)cc3)nn2c1 [GW581744X]
- remaining activity at 100 µM (E. coli MurC): 73%
- remaining activity at 100 µM (E. coli MurD): 74%
- remaining activity at 100 µM (E. coli MurF): 79%
